Assay results reported in publication PMC12203311, “Design, synthesis, in silico and in vitro evaluation of pyrrole–indole hybrids as dual tubulin and aromatase inhibitors with potent anticancer activities” (RSC Advances, 2025).

Legend:
K-562 = experiment: NCI60 five-dose screen; format: cell-based; conditions: Homo sapiens, K562, K-562, leukemia; for CC50: read-out: LC50 (the source's name)
A549/ATCC = experiment: NCI60 five-dose screen; format: cell-based; conditions: Homo sapiens, NSC lung cancer; for CC50: read-out: LC50 (the source's name)
EKVX = experiment: NCI60 five-dose screen; format: cell-based; conditions: Homo sapiens, NSC lung cancer; for CC50: read-out: LC50 (the source's name)
NCI-H322M = experiment: NCI60 five-dose screen; format: cell-based; conditions: Homo sapiens, NSC lung cancer; for CC50: read-out: LC50 (the source's name)
NCI-H522 = experiment: NCI60 five-dose screen; format: cell-based; conditions: Homo sapiens, NCI-H522, NSC lung cancer; for CC50: read-out: LC50 (the source's name)
COLO 205 = experiment: NCI60 five-dose screen; format: cell-based, human; conditions: Homo sapiens; for CC50: COLO 205, COLO 205, colon cancer, read-out: LC50 (the source's name); for GI50: COLO 205, colon cancer
KM12 = experiment: NCI60 five-dose screen; format: cell-based; conditions: Homo sapiens, KM12, colon cancer; for CC50: read-out: LC50 (the source's name)
SF-539 = experiment: NCI60 five-dose screen; format: cell-based; conditions: Homo sapiens, SF-539, CNS cancer; for CC50: read-out: LC50 (the source's name)
SNB-19 = experiment: NCI60 five-dose screen; format: cell-based; conditions: Homo sapiens, SNB-19, CNS cancer; for CC50: read-out: LC50 (the source's name)
SNB-75 = experiment: NCI60 five-dose screen; format: cell-based; conditions: Homo sapiens, SNB-75, CNS cancer; for CC50: read-out: LC50 (the source's name)
SK-MEL-28 = experiment: NCI60 five-dose screen; format: cell-based; conditions: Homo sapiens, SK-MEL-28, melanoma; for CC50: read-out: LC50 (the source's name)
SK-MEL-5 = experiment: NCI60 five-dose screen; format: cell-based, human; conditions: Homo sapiens; for CC50: SK-MEL-5, SK-MEL-5, melanoma, read-out: LC50 (the source's name); for GI50: SK-MEL-5, melanoma
UACC-62 = experiment: NCI60 five-dose screen; format: cell-based; conditions: Homo sapiens, UACC-62, melanoma; for CC50: read-out: LC50 (the source's name)
OVCAR-4 = experiment: NCI60 five-dose screen; format: cell-based; conditions: Homo sapiens, OVCAR-4, ovarian cancer; for CC50: read-out: LC50 (the source's name)
NCI/ADR-RES = experiment: NCI60 five-dose screen; format: cell-based, human; conditions: Homo sapiens, ovarian cancer; for CC50: read-out: LC50 (the source's name)
786-0 = experiment: NCI60 five-dose screen; format: cell-based; conditions: Homo sapiens, 786-0, renal cancer; for CC50: read-out: LC50 (the source's name)
ACHN = experiment: NCI60 five-dose screen; format: cell-based; conditions: Homo sapiens, renal cancer; for CC50: read-out: LC50 (the source's name)
TK-10 = experiment: NCI60 five-dose screen; format: cell-based; conditions: Homo sapiens, TK-10, renal cancer; for CC50: read-out: LC50 (the source's name)
Human CYP19 (aromatase) = target: T1, Human CYP19 (aromatase) (Homo sapiens, UniProt P11511); experiment: Aromatase inhibition assay (DBF fluorometric substrate); format: biochemical; conditions: active defined as IC50 < 12.5 µM
T1 construct: purchased GENTEST, Woburn, MA 456260; host or cells: baculovirus/insect cells
T1 sequence (P11511 1-503): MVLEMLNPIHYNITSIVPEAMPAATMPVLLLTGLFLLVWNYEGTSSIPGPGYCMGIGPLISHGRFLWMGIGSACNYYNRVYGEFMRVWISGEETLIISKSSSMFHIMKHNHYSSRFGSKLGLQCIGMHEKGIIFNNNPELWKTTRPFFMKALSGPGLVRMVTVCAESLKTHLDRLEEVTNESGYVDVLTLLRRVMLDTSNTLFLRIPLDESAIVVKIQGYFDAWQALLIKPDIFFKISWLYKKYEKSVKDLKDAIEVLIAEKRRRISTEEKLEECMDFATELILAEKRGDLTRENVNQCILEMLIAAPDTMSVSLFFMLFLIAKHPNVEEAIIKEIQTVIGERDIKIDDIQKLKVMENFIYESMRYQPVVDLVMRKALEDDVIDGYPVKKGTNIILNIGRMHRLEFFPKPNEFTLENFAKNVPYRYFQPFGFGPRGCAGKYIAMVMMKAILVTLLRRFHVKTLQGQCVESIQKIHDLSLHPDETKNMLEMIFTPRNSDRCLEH
Description: Aromatase enzyme was purchased from GENTEST, Woburn, MA01801, USA (Supersom human CYP19+oxidoreductase, baculovirus/insect cell-expressed; Product No. 456260). The aromatase inhibitory activity was performed using Human CYP19 enzymes and DBF as a fluorometric substrate as described by Stresser, et al.[41] with minor modifications. The mixture, containing 100 µL of cofactor/serial dilution buffer was pre-incubated in 37 °C for 10 min. […] After incubation at 37 °C for 30 min, the reaction was stopped by addition of 50 µL of 2.2 M NaOH. Fluorescence signal was monitored using an excitation wavelength of 490 nm and emission wavelength of 530 nm.

[1] = system: L929 normal mouse fibroblast cell line; experiment: Cytotoxicity MTT assay, L929; format: cell-based; conditions: 50 µM single concentration
Description: T47D (ATCC HTB-133) was purchased from Biomedia (Thailand) Co., LTD. L929 (ATCC CCL-1) was received as a gift from Prof. Tanapat Palaga, Department of Microbiology, Faculty of Science, Chulalongkorn University, Bangkok, Thailand. The cells were cultured in Dulbecco's Modified Eagle's Medium (DMEM; Gibco) supplemented with 10% fetal bovine serum (FBS; HyClone), 100 U mL^−1 penicillin and 100 µg mL^−1 streptomycin (Gibco) at 37 °C with 5% CO2.
The antiproliferative activity was determined by MTT assay. Briefly, the cells were plated into a 96-well microplate at the density of 10 000 cells per well. The cells were allowed to grow overnight before treated with the solutions of compounds in culture medium at the designated concentrations for 48 hours. The medium was then replaced with MTT solution (0.5 mg mL^−1 MTT in culture medium) and incubated for 3 hours. A 100 µL of DMSO was used to dissolve the produced formazan. Absorbance at 570 nm was then measured using a microplate reader (Varioskan™ LUX multimode microplate reader, Thermo Scientific™). Percent viability was calculated relative to the vehicle control (DMSO).

Structure (SMILES)	GI50 (K-562) [µM]	CC50 (K-562) [µM]	GI50 (A549/ATCC) [µM]	CC50 (A549/ATCC) [µM]	GI50 (EKVX) [µM]	CC50 (EKVX) [µM]	GI50 (NCI-H322M) [µM]	CC50 (NCI-H322M) [µM]	GI50 (NCI-H522) [µM]	CC50 (NCI-H522) [µM]	CC50 (COLO 205) [µM]	GI50 (COLO 205) [µM]	GI50 (KM12) [µM]	CC50 (KM12) [µM]	GI50 (SF-539) [µM]	CC50 (SF-539) [µM]	GI50 (SNB-19) [µM]	CC50 (SNB-19) [µM]	GI50 (SNB-75) [µM]	CC50 (SNB-75) [µM]	other results
O=C(N/N=C/c1cc[nH]c1)c1[nH]c2ccc(Br)cc2c1-c1ccccc1 [Derivative 3b, (E)-N′-((1H-Pyrrol-3-yl)methylene)-5-bromo-3-phenyl-1H-indole-2-carbohydrazide]	0.429	97	1.61	52.6	4.41	41.7	2.38	37.2	0.925	24	20.4	1.23	0.996	37.8	0.869	17	2.55	39.8	0.88	32	GI50 (SK-MEL-28): 5.75 µM; CC50 (SK-MEL-28): 44.4 µM; CC50 (SK-MEL-5): 14.6 µM; GI50 (SK-MEL-5): 1.1 µM; GI50 (UACC-62): 1.03 µM; CC50 (UACC-62): 41.3 µM; GI50 (OVCAR-4): 4.82 µM; CC50 (OVCAR-4): 45.2 µM; GI50 (NCI/ADR-RES): 0.636 µM; CC50 (NCI/ADR-RES): 27.1 µM; GI50 (786-0): 5.46 µM; CC50 (786-0): 77.2 µM; GI50 (ACHN): 1.71 µM; CC50 (ACHN): 39 µM; GI50 (TK-10): 11.1 µM; CC50 (TK-10): 58 µM; IC50 (Human CYP19 (aromatase)): 11 ± 1.3 µM
Cn1cccc1/C=N/NC(=O)c1[nH]c2ccc(Br)cc2c1-c1ccccc1 [Derivative 3d, (E)-5-Bromo-N′-((1-methyl-1H-pyrrol-2-yl)methylene)-3-phenyl-1H-indole-2-carbohydrazide]	0.327	> 100	0.649	> 100	0.641	> 100	1.98	> 100	0.217	> 100	> 100	0.366	0.357	> 100	0.217	> 100	0.449	> 100	0.259	> 100	GI50 (SK-MEL-28): 4.7 µM; CC50 (SK-MEL-28): > 100 µM; CC50 (SK-MEL-5): > 100 µM; GI50 (SK-MEL-5): 0.196 µM; GI50 (UACC-62): 0.283 µM; CC50 (UACC-62): > 100 µM; GI50 (OVCAR-4): 0.637 µM; CC50 (OVCAR-4): > 100 µM; GI50 (NCI/ADR-RES): 0.186 µM; CC50 (NCI/ADR-RES): 40.9 µM; GI50 (786-0): 29.4 µM; CC50 (786-0): > 100 µM; GI50 (ACHN): 0.175 µM; CC50 (ACHN): > 100 µM; GI50 (TK-10): 1.01 µM; CC50 (TK-10): > 100 µM; IC50 (Human CYP19 (aromatase)): > 12.5 µM; aromatase inhibition (Human CYP19 (aromatase)): inactivity against aromatase; L929 cell survival [1]: > 80%; L929 toxicity at single concentration [1]: — ^c (No toxicity observed at 50 µM single concentration (>80% cell survival).)
